{"source": "patent US11577063B2", "about": "“Soluble microneedle containing ingredient for controlling release of neurotransmitters” (LG HOUSEHOLD & HEALTH CARE LTD., priority 2015, dated 2023)", "key": {"[1]": {"experiment": "Maximum content of ampelopsin in cosmetic composition or microneedle", "type": "physicochemical", "experimental": "When ampelopsin is prepared into a cosmetic composition, only less than 0.5% (based on 5% PEG-400 and 70% water) of ampelopsin can be contained in the cosmetic composition. In contrast, a microneedle prepared by the method according to the present disclosure may contain ampelopsin up to 5% based on the dry weight of the microneedle. Accordingly, a product containing the polyphenol at high concentration can be prepared."}, "[2]": {"target": "SNARE complex (SNAP25, SynH3 and Vps proteins) (Homo sapiens, UniProt P60880+P63027+Q16623)", "sequence (P60880 whole entry)": "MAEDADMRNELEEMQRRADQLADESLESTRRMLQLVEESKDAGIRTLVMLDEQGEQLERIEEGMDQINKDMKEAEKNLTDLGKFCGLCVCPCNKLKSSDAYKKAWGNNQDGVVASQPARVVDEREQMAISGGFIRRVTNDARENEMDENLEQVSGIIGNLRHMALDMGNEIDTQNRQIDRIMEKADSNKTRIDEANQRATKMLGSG", "sequence (Q16623 191-266 limits assumed)": "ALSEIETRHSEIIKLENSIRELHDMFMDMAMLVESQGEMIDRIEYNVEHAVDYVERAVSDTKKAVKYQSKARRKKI", "sequence (P63027 1-94 limits assumed)": "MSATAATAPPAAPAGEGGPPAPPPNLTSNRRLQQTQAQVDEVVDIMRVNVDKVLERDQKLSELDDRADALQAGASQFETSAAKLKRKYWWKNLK", "experiment": "Inhibition of SNARE complex formation (SDS-PAGE)", "type": "biochemical", "details": "FIG. 4; for ability of inhibiting SNARE complex formation compared with myricetin: at low concentrations; for inhibition of SNARE complex formation: polyphenol 1-50 ppm, room temperature 30 minutes, 12% SDS-PAGE", "experimental": "SDS-PAGE (sodium dodecyl sulfate-polyacrylamide gel electrophoresis) analysis was performed to investigate the inhibition of SNARE complex formation by polyphenols such as ampelopsin, kaempferol, myricetin, etc. It was investigated whether the SNARE complex formed when SNAP25, SynH3 and Vps proteins are mixed at a molar ratio of 1:1:1 was inhibited by the addition of the polyphenol compound at a concentration of 1-50 ppm. After adding the respective proteins dropwise into a 1-mL tube, the polyphenol compound was added and reaction was conducted at room temperature for 30 minutes. Then, it was investigated whether the SNARE complex was formed by electrophoresing on 12% SDS-PAGE."}, "[3]": {"test_system": "C2C12 cells co-cultured with neuroblasts", "experiment": "Inhibition of muscle contraction by polyphenols, C2C12 cells co-cultured with neuroblasts", "type": "cell-based", "details": "FIG. 7; for number of contractions of the C2C12 cells: 50 ppm polyphenol, 2 hours incubation, contractions counted for 30 seconds; for effect of inhibiting neurotransmitter release compared with myricetin: 50 ppm, 2 hours", "experimental": "C2C12 cells were cultured in DMEM medium supplemented with 10% fetal calf serum and 1% antibiotic on a plate. Then, neuroblasts were co-cultured additionally on the same plate. When the C2C12 cells began contraction, the number of contractions by the C2C12 cells was measured for 30 seconds. Then, after completely removing the medium and washing 3 times with PBS, the cells were incubated for 2 hours after adding a calf serum-free medium and 50 ppm of the polyphenol compound. Then, the inhibition of muscle contraction was investigated by measuring the number of contractions of the C2C12 cells again for 30 seconds."}, "[4]": {"test_system": "muscle cells and neuroblasts co-culture", "experiment": "Inhibition of muscle contraction in vitro by magnesium gluconate, co-cultured muscle cells and neuroblasts", "type": "cell-based", "details": "various concentrations, observed 10 minutes after treatment; FIG. 9", "experimental": "After co-culturing muscle cells and neuroblasts in vitro and treating with magnesium gluconate at various concentrations, decrease in the number of muscle contractions was observed 10 minutes later."}}}
{"molecule": "O=C1c2c(O)cc(O)cc2O[C@H](c2cc(O)c(O)c(O)c2)[C@H]1O", "note": "[ampelopsin]", "values": [{"measurement": "ampelopsin content that can be contained in a cosmetic composition", "setting": "[1]; based on 5% PEG-400 and 70% water", "result": "less than 0.5%"}, {"measurement": "ampelopsin content that the microneedle may contain", "setting": "[1]; based on the dry weight of the microneedle", "result": "up to 5%"}, {"measurement": "ability of inhibiting SNARE complex formation compared with myricetin", "setting": "[2]", "result": "better ability of inhibiting SNARE complex formation at low concentrations"}, {"measurement": "inhibition of SNARE complex formation", "setting": "[2]", "result": "effectively inhibit the SNARE complex formation in a concentration-dependent manner"}, {"measurement": "number of contractions of the C2C12 cells", "setting": "[3]", "result": "reduce the number of contractions of the C2C12 cells"}, {"measurement": "effect of inhibiting neurotransmitter release compared with myricetin", "setting": "[3]", "result": "relatively higher effect of inhibiting the release than myricetin"}]}
{"molecule": "O=c1c(O)c(-c2ccc(O)cc2)oc2cc(O)cc(O)c12", "note": "[kaempferol]", "values": [{"measurement": "ability of inhibiting SNARE complex formation compared with myricetin", "setting": "[2]", "result": "better ability of inhibiting SNARE complex formation at low concentrations"}, {"measurement": "inhibition of SNARE complex formation", "setting": "[2]", "result": "effectively inhibit the SNARE complex formation in a concentration-dependent manner"}, {"measurement": "number of contractions of the C2C12 cells", "setting": "[3]", "result": "reduce the number of contractions of the C2C12 cells"}, {"measurement": "effect of inhibiting neurotransmitter release compared with myricetin", "setting": "[3]", "result": "relatively higher effect of inhibiting the release than myricetin"}]}
{"molecule": "O=c1c(O)c(-c2cc(O)c(O)c(O)c2)oc2cc(O)cc(O)c12", "note": "[myricetin]", "values": [{"measurement": "inhibition of SNARE complex formation", "setting": "[2]", "result": "effectively inhibit the SNARE complex formation in a concentration-dependent manner"}, {"measurement": "number of contractions of the C2C12 cells", "setting": "[3]", "result": "reduce the number of contractions of the C2C12 cells"}]}
{"molecule": "magnesium gluconate", "values": [{"measurement": "number of muscle contractions", "setting": "[4]", "result": "significant decrease in the number of muscle contractions as the concentration of magnesium gluconate was increased"}]}
